# Data as given in US6534447B1, “Herbicidal pyridine compounds” (BASF Aktiengesellschaft, priority 1999, dated 2003).
# Legend:
# Type in all cases: in vivo
# [1] = test system: Abutilon theophrasti (ABUTH, velvetleaf); test: Pre-emergence herbicidal evaluation; settings: 3 weeks after treatment
# In short: (§1)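 Applied pre-emergence as an aqueous acetone spray (about 0.025 to 0.4 kg per hectare) onto freshly planted pots. Assessment is by visual rating from 3 weeks.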
# [2] = test system: Alopecurus myosuroides (ALOMY, black grass); test: Pre-emergence herbicidal evaluation; settings: 3 weeks after treatment
# In short: as §1
# [3] = test system: Echinochloa grus galli (ECHCG, barnyard grass); test: Pre-emergence herbicidal evaluation; settings: 3 weeks after treatment
# In short: as §1
# [4] = test system: Galium aparine (GALAP, cleaver); test: Pre-emergence herbicidal evaluation; settings: 3 weeks after treatment
# In short: as §1
# [5] = test system: Ipomoea hederacea (IPOHE, morning glory); test: Pre-emergence herbicidal evaluation; settings: 3 weeks after treatment
# In short: as §1
# [6] = test system: Matricaria inodora (MATIN, mayweed); test: Pre-emergence herbicidal evaluation; settings: 3 weeks after treatment
# In short: as §1
# [7] = test system: Setaria viridis (SETVI, green foxtail); test: Pre-emergence herbicidal evaluation; settings: 3 weeks after treatment
# In short: as §1
# [8] = test system: Stellaria media (STEME, chickweed); test: Pre-emergence herbicidal evaluation; settings: 3 weeks after treatment
# In short: as §1
# [9] = test system: Glycine max (GLXMA, soyabeans); test: Pre-emergence herbicidal evaluation (crop); settings: 3 weeks after treatment
# In short: as §1
# [10] = test system: Triticum aestivum (TRZAW, winter wheat); test: Pre-emergence herbicidal evaluation (crop); settings: 3 weeks after treatment
# In short: as §1
# Zea mays (ZEAMX, maize) = test: Pre-emergence herbicidal evaluation (crop); settings: 3 weeks after treatment
# In short: as §1
# [11] = test system: Abutilon theophrasti (ABUTH, velvetleaf); test: Post-emergence herbicidal evaluation; settings: 3 weeks after treatment
# In short: (§2)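 Seedlings sprayed post-emergence with aqueous dilutions of acetone solutions at about 0.025 to 0.4 kg per hectare equivalent were assessed from 3 weeks after treatment, using a scale from 0 (as untreated control) to 9 (death).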
# [12] = test system: Alopecurus myosuroides (ALOMY, black grass); test: Post-emergence herbicidal evaluation; settings: 3 weeks after treatment
# In short: as §2
# [13] = test system: Dolium multiflorum (LOLMU, ryegrass); test: Post-emergence herbicidal evaluation; settings: rate 0.100 kg/ha, 3 weeks after treatment
# In short: as §2
# [14] = test system: Echinochloa grus galli (ECHCG, barnyard grass); test: Post-emergence herbicidal evaluation; settings: 3 weeks after treatment
# In short: as §2
# [15] = test system: Galium aparine (GALAP, cleaver); test: Post-emergence herbicidal evaluation; settings: 3 weeks after treatment
# In short: as §2
# [16] = test system: Ipomoea hederacea (IPOHE, morning glory); test: Post-emergence herbicidal evaluation; settings: 3 weeks after treatment
# In short: as §2
# [17] = test system: Matricaria inodora (MATIN, mayweed); test: Post-emergence herbicidal evaluation; settings: 3 weeks after treatment
# In short: as §2
# [18] = test system: Setaria viridis (SETVI, green foxtail); test: Post-emergence herbicidal evaluation; settings: 3 weeks after treatment
# In short: as §2
# eight weed species = test: Pre-emergence herbicidal evaluation, overall weed control
# Description: The pre-emergence herbicidal activity of the compounds of the present invention is exemplified by the following test in which the seeds of a variety of monocotyledonous and dicotyledonous plants are seperately mixed with potting soil and planted on top of approximately one inch of soil in separate post. After planting, the pots are sprayed with the selected aqueous acetone solution. containing test compound in sufficient quantity to provide the equivalent of about 0.025 to 0.4 kg per hectare of test compound per pot. The treated pots are then placed on greenhouse benches, watered and cared for in accordance with conventional greenhouse procedures. From 3 weeks after treatment, the tests are terminated and each pot is examined and rated according to the rating system set forth below.
# Thus, there is evidence for the good potential of the compounds of the invention for excellent cross spectrum control of both grasses and broadleaf weeds in key crops.
# [19] = test system: Stellaria media (STEME, chickweed); test: Post-emergence herbicidal evaluation; settings: 3 weeks after treatment
# In short: as §2
# [20] = crop selective dose of 0.1 kg/ha
smiles,measurement,setting,value
"Cc1cc(OCCSC(F)(F)F)nc(Oc2cc(C(F)(F)F)nn2C)c1 [Example 1, 2-(1-methyl-3-trifluoromethylpyrazol-5-yloxy)-6-(2-trifluoromethylthioethoxy)-4-methylpyridine]",ABUTH rating,[1]; rate 0.025 kg/ha,8 (8 - Approaching complete kill)
same,ABUTH rating,[1]; rate 0.100 kg/ha,9 (9 - Complete kill)
same,ABUTH rating,[1]; rate 0.400 kg/ha,9 (9 - Complete kill)
same,ALOMY rating,[2]; rate 0.025 kg/ha,7 (7 - Good herbicidal effect)
same,ALOMY rating,[2]; rate 0.100 kg/ha,9 (9 - Complete kill)
same,ALOMY rating,[2]; rate 0.400 kg/ha,9 (9 - Complete kill)
same,ECHCG rating,[3]; rate 0.025 kg/ha,7 (7 - Good herbicidal effect)
same,ECHCG rating,[3]; rate 0.100 kg/ha,9 (9 - Complete kill)
same,ECHCG rating,[3]; rate 0.400 kg/ha,9 (9 - Complete kill)
same,GALAP rating,[4]; rate 0.025 kg/ha,6 (6 - Herbicidal effect)
same,GALAP rating,[4]; rate 0.100 kg/ha,8 (8 - Approaching complete kill)
same,GALAP rating,[4]; rate 0.400 kg/ha,8 (8 - Approaching complete kill)
same,IPOHE rating,[5]; rate 0.025 kg/ha,6 (6 - Herbicidal effect)
same,IPOHE rating,[5]; rate 0.100 kg/ha,9 (9 - Complete kill)
same,IPOHE rating,[5]; rate 0.400 kg/ha,9 (9 - Complete kill)
same,MATIN rating,[6]; rate 0.025 kg/ha,9 (9 - Complete kill)
same,MATIN rating,[6]; rate 0.100 kg/ha,9 (9 - Complete kill)
same,MATIN rating,[6]; rate 0.400 kg/ha,9 (9 - Complete kill)
same,SETVI rating,[7]; rate 0.025 kg/ha,9 (9 - Complete kill)
same,SETVI rating,[7]; rate 0.100 kg/ha,9 (9 - Complete kill)
same,SETVI rating,[7]; rate 0.400 kg/ha,9 (9 - Complete kill)
same,STEME rating,[8]; rate 0.025 kg/ha,9 (9 - Complete kill)
same,STEME rating,[8]; rate 0.100 kg/ha,9 (9 - Complete kill)
same,STEME rating,[8]; rate 0.400 kg/ha,9 (9 - Complete kill)
same,GLXMA rating,[9]; rate 0.025 kg/ha,2 (2 - Slight effect)
same,GLXMA rating,[9]; rate 0.100 kg/ha,3 (3 - Moderate effect)
same,GLXMA rating,[9]; rate 0.400 kg/ha,4 (4 - Injury)
same,TRZAW rating,[10]; rate 0.025 kg/ha,1 (1 - Trace effect)
same,TRZAW rating,[10]; rate 0.100 kg/ha,2 (2 - Slight effect)
same,TRZAW rating,[10]; rate 0.400 kg/ha,3 (3 - Moderate effect)
same,ZEAMX rating,"Zea mays (ZEAMX, maize); rate 0.025 kg/ha",2 (2 - Slight effect)
same,ZEAMX rating,"Zea mays (ZEAMX, maize); rate 0.100 kg/ha",4 (4 - Injury)
same,ZEAMX rating,"Zea mays (ZEAMX, maize); rate 0.400 kg/ha",5 (5 - Definite injury)
same,ABUTH rating,[11]; rate 0.025 kg/ha,5 (5 - Definite injury)
same,ABUTH rating,[11]; rate 0.100 kg/ha,6 (6 - Herbicidal effect)
same,ABUTH rating,[11]; rate 0.400 kg/ha,6 (6 - Herbicidal effect)
same,ALOMY rating,[12]; rate 0.025 kg/ha,4 (4 - Injury)
same,ALOMY rating,[12]; rate 0.100 kg/ha,7 (7 - Good herbicidal effect)
same,ALOMY rating,[12]; rate 0.400 kg/ha,8 (8 - Approaching complete kill)
same,LOLMU rating,[13],8 (8 - Approaching complete kill)
same,ECHCG rating,[14]; rate 0.025 kg/ha,6 (6 - Herbicidal effect)
same,ECHCG rating,[14]; rate 0.100 kg/ha,9 (9 - Complete kill)
same,ECHCG rating,[14]; rate 0.400 kg/ha,9 (9 - Complete kill)
same,GALAP rating,[15]; rate 0.025 kg/ha,2 (2 - Slight effect)
same,GALAP rating,[15]; rate 0.100 kg/ha,5 (5 - Definite injury)
same,GALAP rating,[15]; rate 0.400 kg/ha,8 (8 - Approaching complete kill)
same,IPOHE rating,[16]; rate 0.025 kg/ha,8 (8 - Approaching complete kill)
same,IPOHE rating,[16]; rate 0.100 kg/ha,8 (8 - Approaching complete kill)
same,IPOHE rating,[16]; rate 0.400 kg/ha,9 (9 - Complete kill)
same,MATIN rating,[17]; rate 0.025 kg/ha,5 (5 - Definite injury)
same,MATIN rating,[17]; rate 0.100 kg/ha,7 (7 - Good herbicidal effect)
same,MATIN rating,[17]; rate 0.400 kg/ha,8 (8 - Approaching complete kill)
same,SETVI rating,[18]; rate 0.025 kg/ha,5 (5 - Definite injury)
same,SETVI rating,[18]; rate 0.100 kg/ha,8 (8 - Approaching complete kill)
same,SETVI rating,[18]; rate 0.400 kg/ha,8 (8 - Approaching complete kill)
same,weed control (in words),eight weed species; [20],complete control
Cc1cc(OCCCSC(F)(F)F)nc(Oc2cc(C(F)(F)F)nn2C)c1 [Example 4],ABUTH rating,[1]; rate 0.025 kg/ha,3 (3 - Moderate effect)
same,ABUTH rating,[1]; rate 0.100 kg/ha,7 (7 - Good herbicidal effect)
same,ABUTH rating,[1]; rate 0.400 kg/ha,9 (9 - Complete kill)
same,ALOMY rating,[2]; rate 0.025 kg/ha,5 (5 - Definite injury)
same,ALOMY rating,[2]; rate 0.100 kg/ha,8 (8 - Approaching complete kill)
same,ALOMY rating,[2]; rate 0.400 kg/ha,8 (8 - Approaching complete kill)
same,ECHCG rating,[3]; rate 0.025 kg/ha,3 (3 - Moderate effect)
same,ECHCG rating,[3]; rate 0.100 kg/ha,8 (8 - Approaching complete kill)
same,ECHCG rating,[3]; rate 0.400 kg/ha,9 (9 - Complete kill)
same,GALAP rating,[4]; rate 0.025 kg/ha,4 (4 - Injury)
same,GALAP rating,[4]; rate 0.100 kg/ha,8 (8 - Approaching complete kill)
same,GALAP rating,[4]; rate 0.400 kg/ha,8 (8 - Approaching complete kill)
same,IPOHE rating,[5]; rate 0.025 kg/ha,6 (6 - Herbicidal effect)
same,IPOHE rating,[5]; rate 0.100 kg/ha,9 (9 - Complete kill)
same,IPOHE rating,[5]; rate 0.400 kg/ha,9 (9 - Complete kill)
same,MATIN rating,[6]; rate 0.025 kg/ha,8 (8 - Approaching complete kill)
same,MATIN rating,[6]; rate 0.100 kg/ha,8 (8 - Approaching complete kill)
same,MATIN rating,[6]; rate 0.400 kg/ha,8 (8 - Approaching complete kill)
same,SETVI rating,[7]; rate 0.025 kg/ha,8 (8 - Approaching complete kill)
same,SETVI rating,[7]; rate 0.100 kg/ha,9 (9 - Complete kill)
same,SETVI rating,[7]; rate 0.400 kg/ha,9 (9 - Complete kill)
same,STEME rating,[8]; rate 0.025 kg/ha,9 (9 - Complete kill)
same,STEME rating,[8]; rate 0.100 kg/ha,9 (9 - Complete kill)
same,STEME rating,[8]; rate 0.400 kg/ha,9 (9 - Complete kill)
same,GLXMA rating,[9]; rate 0.025 kg/ha,1 (1 - Trace effect)
same,GLXMA rating,[9]; rate 0.100 kg/ha,2 (2 - Slight effect)
same,GLXMA rating,[9]; rate 0.400 kg/ha,3 (3 - Moderate effect)
same,TRZAW rating,[10]; rate 0.025 kg/ha,0 (0 - No effect)
same,TRZAW rating,[10]; rate 0.100 kg/ha,0 (0 - No effect)
same,TRZAW rating,[10]; rate 0.400 kg/ha,2 (2 - Slight effect)
same,ZEAMX rating,"Zea mays (ZEAMX, maize); rate 0.025 kg/ha",2 (2 - Slight effect)
same,ZEAMX rating,"Zea mays (ZEAMX, maize); rate 0.100 kg/ha",2 (2 - Slight effect)
same,ZEAMX rating,"Zea mays (ZEAMX, maize); rate 0.400 kg/ha",4 (4 - Injury)
same,ABUTH rating,[11]; rate 0.025 kg/ha,5 (5 - Definite injury)
same,ABUTH rating,[11]; rate 0.100 kg/ha,7 (7 - Good herbicidal effect)
same,ABUTH rating,[11]; rate 0.400 kg/ha,8 (8 - Approaching complete kill)
same,ALOMY rating,[12]; rate 0.025 kg/ha,6 (6 - Herbicidal effect)
same,ALOMY rating,[12]; rate 0.100 kg/ha,8 (8 - Approaching complete kill)
same,ALOMY rating,[12]; rate 0.400 kg/ha,8 (8 - Approaching complete kill)
same,LOLMU rating,[13],8 (8 - Approaching complete kill)
same,ECHCG rating,[14]; rate 0.025 kg/ha,8 (8 - Approaching complete kill)
same,ECHCG rating,[14]; rate 0.100 kg/ha,8 (8 - Approaching complete kill)
same,ECHCG rating,[14]; rate 0.400 kg/ha,9 (9 - Complete kill)
same,GALAP rating,[15]; rate 0.025 kg/ha,7 (7 - Good herbicidal effect)
same,GALAP rating,[15]; rate 0.100 kg/ha,8 (8 - Approaching complete kill)
same,GALAP rating,[15]; rate 0.400 kg/ha,9 (9 - Complete kill)
same,IPOHE rating,[16]; rate 0.025 kg/ha,5 (5 - Definite injury)
same,IPOHE rating,[16]; rate 0.100 kg/ha,7 (7 - Good herbicidal effect)
same,IPOHE rating,[16]; rate 0.400 kg/ha,9 (9 - Complete kill)
same,MATIN rating,[17]; rate 0.025 kg/ha,4 (4 - Injury)
same,MATIN rating,[17]; rate 0.100 kg/ha,7 (7 - Good herbicidal effect)
same,MATIN rating,[17]; rate 0.400 kg/ha,8 (8 - Approaching complete kill)
same,SETVI rating,[18]; rate 0.025 kg/ha,5 (5 - Definite injury)
same,SETVI rating,[18]; rate 0.100 kg/ha,7 (7 - Good herbicidal effect)
same,SETVI rating,[18]; rate 0.400 kg/ha,9 (9 - Complete kill)
same,STEME rating,[19]; rate 0.025 kg/ha,5 (5 - Definite injury)
same,STEME rating,[19]; rate 0.100 kg/ha,5 (5 - Definite injury)
same,STEME rating,[19]; rate 0.400 kg/ha,8 (8 - Approaching complete kill)
same,weed control (in words),eight weed species; [20],high levels of activity
same,weed control (in words),eight weed species; wheat selective dose of 0.4 kg/ha,complete weed control
